The values that follow are results of earlier work, collected in US8404715B2, “Methods and compositions using racemic, (R)-, and (S)-fexofenadine in combination with leukotriene inhibitors” (Sunovion Pharmaceuticals Inc., priority 1998, dated 2013).

Where two headings read alike, the source gives them in different places.

Data set [1] concerns leukotriene-dependent smooth muscle contractions. Particulars: in vitro, human airways.
Data set [2] has as its system leukotriene (LTH4, LTC4, LTD4, and LTE4) formation. The settings on record: in vitro.
The subject of data set [3] is leukotriene-dependent smooth muscle contractions. The settings on record: in vitro, guinea pig airways.
For data set [4] the following is noted: in some patients.
The conditions of data set [5]: 373 patients.
The subject of a further data set is LTB4 formation. The settings on record: ex vivo, several species.
The conditions of data set [6]: in vivo.
The test system of the next data set is LTD4 (leukotriene D4). The settings on record: guinea pigs.
Data set [7] has as its system nasal response to allergen challenge.
For data set [8], the system named is contractile activity of three leukotrienes. The settings on record: humans.
The test system of data set [9] is LTD4. The settings on record: in vivo.
For data set [10], the system named is contractile activity of three leukotrienes. Particulars: laboratory animals.
The test system of data set [11] is LTD4. Particulars: in vivo. The source holds these as a separate data set.
The conditions of data set [12]: in some patients. This is another data set of the same source.

As to `CC(c1cc2ccccc2s1)N(O)C(N)=O` (racemic) [zileuton, (±)-1-(1-Benso[b]thien-2-ylethyl)-1-hydroxyurea], the “leukotriene-dependent smooth muscle contractions” value in data set [1] and in data set [3] was “inhibits” in each case. The “leukotriene (LTH4, LTC4, LTD4, and LTE4) formation” value in [2] is “inhibit”. Moreover, the adverse effects reported result in [4] was “headache, pain, asthenia, dyspepsia, nausea, and myalgia”. The values for the efficacy result in data set [5] (400 mg) and in data set [5] (600 mg four times daily) were “failed to do so” and “required to provide efficacy”, respectively. For the same compound, the LTB4 formation result in the data set with LTB4 formation was “inhibitor”.
As to `CC(C)(C)c1ccc(C(O)CCCN2CCC(C(O)(c3ccccc3)c3ccccc3)CC2)cc1` (stereo not shown) [Terfenadine], in [6], the absorption result is given as “well absorbed” and the metabolism entry is reported as “extensively metabolized”. In the data set with LTD4 (leukotriene D4), the “increase in airway resistance caused by LTD4” value is recorded as “suppressed”. In data set [7] (in vivo), the “early nasal response to allergen challenge” value was “partially inhibits”, the “influx of eosinophils into nasal secretions” value is listed as “without affecting” and the “subsequent reactivity to a challenge with methacholine” value is “partially inhibits”. Further, the “levels of tryptase, prostaglandin D2 and leukotriene C4” value in data set [7] (relative to the placebo, differences did not achieve statistical significance) was “tended to decrease”.
`COc1cc(C(=O)NS(=O)(=O)c2ccccc2C)ccc1Cc1cn(C)c2ccc(NC(=O)OC3CCCC3)cc12` [zafirlukast, 4-(5-cyclopentyloxy-carbonylamino-1-methyl-indol-8-ylmethyl)-3-methoxy-N-o-tolylsulfonylbenzamide]: the “contractile activity of three leukotrienes in conducting airway smooth muscle” value in [8] and in data set [10] was “antagonized” throughout. In addition, the “intradermal LTD4-induced increases in cutaneous vascular permeability” value in the data set on LTD4 [9] is on record as “prevented”. The “inhaled LTD4-induced influx of eosinophils into animal lungs” value in the data set on LTD4 [11] is given as “inhibited”. Besides, the adverse effects reported entry in data set [12] is “headache, infection, nausea, diarrhea, pain, asthenia, abdominal pain, dizziness, myalgia, fever, vomiting, SGPT elevation, and dyspepsia”.
